# Tested on: multidrug-resistant (MDR) strains of Mycobacterium tuberculosis
# Experiment: microbe, parasite or virus in culture
# Type: cell-based
# Conditions: 192 h, read-out: Anti-tubercular activity against Mycobacterium tuberculosis MDR (MIC)
row,Compound,MIC
1,"COC(=O)C1=C(C)NC(=O)NC1c1ccc([N+](=O)[O-])cc1[N+](=O)[O-] (stereo not shown) [DHPM-KN4, Methyl 4-(2,4-dinitrophenyl)-6-methyl-2-oxo-1,2,3,4-tetrahydropyrimidine-5-carboxylate]",64 µg/mL
2,"CC1=C(C(=O)N2CCCCC2)C(c2ccc([N+](=O)[O-])cc2)NC(=S)N1 (stereo not shown) [DHPM-KN5, (6-Methyl-4-(4-nitrophenyl)-2-thioxo-1,2,3,4-tetrahydropyrimidin-5-yl)(piperidin-1-yl)methanone]",32 µg/mL
3,"CC1=C(C(=O)N2CCCCC2)C(c2ccc(Br)cc2)NC(=S)N1 (stereo not shown) [DHPM-KN6, (4-(4-Bromophenyl)-6-methyl-2-thioxo-1,2,3,4-tetrahydropyrimidin-5-yl)(piperidin-1-yl)methanone]",128 µg/mL
4,"CC1=C(C(=O)N2CCCCC2)C(c2ccccc2)NC(=S)N1 (stereo not shown) [DHPM-KN1, (6-Methyl-4-phenyl-2-thioxo-1,2,3,4-tetrahydropyrimidin-5-yl)(piperidin-1-yl)methanone]",64 µg/mL
5,"CC1=C(C(=O)N2CCCCC2)C(c2ccccc2C)NC(=S)N1 (stereo not shown) [DHPM-KN8, (6-Methyl-2-thioxo-4-(o-tolyl)-1,2,3,4-tetrahydropyrimidin-5-yl)(piperidin-1-yl)methanone]",256 µg/mL
6,"COc1ccc(C2NC(=S)NC(C)=C2C(=O)N2CCCCC2)cc1 (stereo not shown) [DHPM-KN7, (4-(4-Methoxyphenyl)-6-methyl-2-thioxo-1,2,3,4-tetrahydropyrimidin-5-yl)(piperidin-1-yl)methanone]",256 µg/mL
7,"CC1=C(C(=O)N2CCCCC2)C(c2ccc(C(F)(F)F)cc2)NC(=S)N1 (stereo not shown) [DHPM-KN10, (6-Methyl-2-thioxo-4-(4-(trifluoromethyl)phenyl)-1,2,3,4-tetrahydropyrimidin-5-yl)(piperidin-1-yl)methanone]",256 µg/mL

# From patent US11912683B1 (priority 2023, dated 2024)
